This note sets out measurements from patent US20180000085A1, “USE OF PICOLINAMIDE COMPOUNDS WITH FUNGICIDAL ACTIVITY” (DOW AGROSCIENCES LLC, priority 2014, published 2018).

SMILES strings stand for the structures.

The subject of experiment [1] is Puccinia triticina. In words: Wheat brown rust (PUCCRT) disease control on wheat seedlings. It is filed as in vivo. More on the design: key to PUCCRT 3DC, HV activity at 100 ppm (% control rating) / PUCCRT disease control, 3DC / PUCCRT 1DP disease control rating, HV activity / PUCCRT 3DC disease control rating, HV activity / PUCCRT 3DC, LV activity at 125.1 g/H (% Control rating) / PUCCRT 1DP, LV activity at 125.1 g/H (% Control rating) / PUCCRT 3DC disease control rating, LV activity at 125.1 g/H / PUCCRT 1DP disease control rating, LV activity at 125.1 g/H / PUCCRT 3DC disease control rating, HV activity at 100 ppm / PUCCRT 1DP disease control rating, HV activity at 100 ppm / HV activity at 100 ppm PUCCRT 3DC (disease control rating) / LV activity at 125.1 g/H PUCCRT 1DP (disease control rating) / LV activity at 125.1 g/H PUCCRT 3DC (disease control rating): A: > 80; B: ≤ 80; C: Not Tested; D: No Activity Observed in the Reported Assay. The conditions noted are these: for PUCCRT 1DP disease control rating, HV activity / PUCCRT 3DC disease control rating, HV activity: HV application at 100 ppm.

Experiment [2] deals with Zymoseptoria tritici. In words: Leaf blotch of wheat (SEPTTR) disease control on wheat seedlings. The experiment is classed as in vivo. More on the design: key to SEPTTR 1DP, HV activity at 100 ppm (% control rating) / SEPTTR 3DC, HV activity at 100 ppm (% control rating) / SEPTTR disease control, 1DP / SEPTTR disease control, 3DC / SEPTTR 1DP disease control rating, HV activity / SEPTTR 3DC disease control rating, HV activity / SEPTTR 3DC, LV activity at 125.1 g/H (% Control rating) / SEPTTR 1DP, LV activity at 125.1 g/H (% Control rating) / SEPTTR 1DP disease control rating, LV activity at 125.1 g/H / SEPTTR 3DC disease control rating, LV activity at 125.1 g/H / SEPTTR 3DC disease control rating, HV activity at 100 ppm / SEPTTR 1DP disease control rating, HV activity at 100 ppm / HV activity at 100 ppm SEPTTR 3DC (disease control rating) / HV activity at 100 ppm SEPTTR 1DP (disease control rating) / LV activity at 125.1 g/H SEPTTR 1DP (disease control rating) / LV activity at 125.1 g/H SEPTTR 3DC (disease control rating): A: > 80; B: ≤ 80; C: Not Tested; D: No Activity Observed in the Reported Assay. Conditions: for SEPTTR 1DP disease control rating, HV activity / SEPTTR 3DC disease control rating, HV activity: HV application at 100 ppm.

[3] abbreviates: HV application, 100 ppm, 1 Day Protectant.
Setting [4] is: HV application, 100 ppm, 3 Day Curative.
Setting [5] is: low volume application, 125.1 g/H, 1 Day Protectant.
[6] abbreviates: low volume application, 125.1 g/H, 3 Day Curative.
Setting [7] is: 1 Day Protectant, wheat brown rust.
[8] abbreviates: 3 Day Curative, wheat brown rust.
Setting [9] is: 1 Day Protectant, wheat leaf blotch.
The mark [10] stands for this setting: 3 Day Curative, wheat leaf blotch.

For the molecule `CCC(CC)[C@@H](Oc1ccc(F)cc1)[C@H](C)OC(=O)[C@@H](NC(=O)c1nccc(OC)c1OCOC(C)=O)C(C)C` [Cmpd 646], the “PUCCRT 1DP, HV activity at 100 ppm (% control rating)” value in experiment [1] (setting [3]) is “A (> 80)”. Also, the “PUCCRT 3DC, HV activity at 100 ppm (% control rating)” value in experiment [1] (setting [4]) is “A (> 80)”. Further, the “PUCCRT 1DP, LV activity at 125.1 g/H (% Control rating)” value in experiment [1] (setting [5]) is on record as “A (> 80)”. The “PUCCRT 3DC, LV activity at 125.1 g/H (% Control rating)” value in experiment [1] (setting [6]) is on record as “A (> 80)”. For the same molecule, the “SEPTTR 1DP, HV activity at 100 ppm (% control rating)” value in experiment [2] (setting [3]) is given as “A (> 80)”. Also, the “SEPTTR 3DC, HV activity at 100 ppm (% control rating)” value in experiment [2] (setting [4]) was “A (> 80)”. The “SEPTTR 1DP, LV activity at 125.1 g/H (% Control rating)” value in experiment [2] (setting [5]) was “B (≤ 80)”. Moreover, in experiment [2] (setting [6]), the “SEPTTR 3DC, LV activity at 125.1 g/H (% Control rating)” value is on record as “B (≤ 80)”.

Take `COc1ccnc(C(=O)N[C@@H](C)C(=O)O[C@@H](C)[C@H](Oc2ccccc2)C(C)(C)C)c1OC(C)=O` [Cmpd 1065]: the “LV activity at 125.1 g/H PUCCRT 1DP (disease control rating)” value in experiment [1] (low volume application, 125.1 g/H, 1 Day Protectant, wheat brown rust) is “A (> 80)”. In experiment [1] (low volume application, 125.1 g/H, 3 Day Curative, wheat brown rust), the “LV activity at 125.1 g/H PUCCRT 3DC (disease control rating)” value is listed as “A (> 80)”. Moreover, the “LV activity at 125.1 g/H SEPTTR 1DP (disease control rating)” value in experiment [2] (low volume application, 125.1 g/H, 1 Day Protectant, wheat leaf blotch) is recorded as “B (≤ 80)”. The “LV activity at 125.1 g/H SEPTTR 3DC (disease control rating)” value in experiment [2] (low volume application, 125.1 g/H, 3 Day Curative, wheat leaf blotch) was “A (> 80)”.

`CCC(CC)[C@@H](OCC1CC1)[C@H](C)OC(=O)[C@H](C)NC(=O)c1nccc(OC)c1O` [Cmpd 353]: in experiment [1] (setting [7]), the “PUCCRT 1DP disease control rating, HV activity” value was “A (> 80)”. In experiment [1] (setting [8]), the “PUCCRT 3DC disease control rating, HV activity” value is “A (> 80)”. In addition, the “SEPTTR 1DP disease control rating, HV activity” value in experiment [2] (setting [9]) is “B (≤ 80)”. The “SEPTTR 3DC disease control rating, HV activity” value in experiment [2] (setting [10]) is recorded as “B (≤ 80)”.

In the case of `CCCOC(CC)C(Oc1ccccc1)C(C)OC(=O)C(CC(C)C)NC(=O)c1nccc(OC)c1OC(C)=O` (centres unmarked) [Cmpd 452], the “PUCCRT 1DP disease control rating, HV activity” value in experiment [1] (setting [7]) is “A (> 80)”. In experiment [1] (setting [8]), the “PUCCRT 3DC disease control rating, HV activity” value is listed as “A (> 80)”. In addition, the “SEPTTR 1DP disease control rating, HV activity” value in experiment [2] (setting [9]) was “B (≤ 80)”. Further, in experiment [2] (setting [10]), the “SEPTTR 3DC disease control rating, HV activity” value is reported as “B (≤ 80)”.

As to `COc1ccnc(C(=O)NC(C)C(=O)OC(C)COc2ccccc2)c1OCOC(C)=O` (centres unmarked) [Cmpd 525], the “PUCCRT 1DP, LV activity at 125.1 g/H (% Control rating)” value in experiment [1] (setting [5]) was “D”. Besides, the “PUCCRT 3DC, LV activity at 125.1 g/H (% Control rating)” value in experiment [1] (setting [6]) is “B (≤ 80)”. The “SEPTTR 1DP, LV activity at 125.1 g/H (% Control rating)” value in experiment [2] (setting [5]) was “B (≤ 80)”. In addition, the “SEPTTR 3DC, LV activity at 125.1 g/H (% Control rating)” value in experiment [2] (setting [6]) was “D”.

In the case of `COc1ccnc(C(=O)N[C@@H](C)C(=O)O[C@@H](C)[C@H](OCC2CC2)c2ccccc2)c1O` [Cmpd 319], the “PUCCRT 1DP disease control rating, HV activity” value in experiment [1] (setting [7]) is listed as “A (> 80)”. Also, in experiment [1] (setting [8]), the “PUCCRT 3DC disease control rating, HV activity” value is given as “B (≤ 80)”. In addition, the “SEPTTR 1DP disease control rating, HV activity” value in experiment [2] (setting [9]) is “A (> 80)”. Also, the “SEPTTR 3DC disease control rating, HV activity” value in experiment [2] (setting [10]) is reported as “A (> 80)”.

Take `CCC(CC)[C@@H](Oc1cc(F)ccc1F)[C@H](C)OC(=O)[C@@H](NC(=O)c1nccc(OC)c1OCOC(C)=O)C(C)C` [Cmpd 650]: the “PUCCRT 1DP, LV activity at 125.1 g/H (% Control rating)” value in experiment [1] (setting [5]) was “A (> 80)”. Moreover, the “PUCCRT 3DC, LV activity at 125.1 g/H (% Control rating)” value in experiment [1] (setting [6]) is given as “B (≤ 80)”. For the same molecule, the “SEPTTR 1DP, LV activity at 125.1 g/H (% Control rating)” value in experiment [2] (setting [5]) is “D”. Besides, the “SEPTTR 3DC, LV activity at 125.1 g/H (% Control rating)” value in experiment [2] (setting [6]) is reported as “B (≤ 80)”.

On to `COc1ccnc(C(=O)NC(C)C(=O)OC(C)COC2CCCC2)c1OCOC(C)=O` (centres unmarked) [Cmpd 534], for which, in experiment [1] (setting [5]), the “PUCCRT 1DP, LV activity at 125.1 g/H (% Control rating)” value is given as “D”. The “PUCCRT 3DC, LV activity at 125.1 g/H (% Control rating)” value in experiment [1] (setting [6]) is listed as “A (> 80)”. Moreover, the “SEPTTR 1DP, LV activity at 125.1 g/H (% Control rating)” value in experiment [2] (setting [5]) is given as “D”. Further, in experiment [2] (setting [6]), the “SEPTTR 3DC, LV activity at 125.1 g/H (% Control rating)” value was “A (> 80)”.

Turning to `CCC(CC)[C@@H](Oc1ccccc1)[C@H](C)OC(=O)[C@H](C)NC(=O)c1nccc(OC)c1O` [Cmpd 306], the “PUCCRT 1DP disease control rating, HV activity” value in experiment [1] (setting [7]) is given as “A (> 80)”. Further, the “PUCCRT 3DC disease control rating, HV activity” value in experiment [1] (setting [8]) is listed as “A (> 80)”. Moreover, the “SEPTTR 1DP disease control rating, HV activity” value in experiment [2] (setting [9]) was “A (> 80)”. In addition, the “SEPTTR 3DC disease control rating, HV activity” value in experiment [2] (setting [10]) is listed as “A (> 80)”.

`COc1ccnc(C(=O)N[C@@H](C)C(=O)O[C@@H](C)[C@H](Oc2ccc3ccccc3c2)C(C)C)c1OC(C)=O` [Cmpd 632]: the “PUCCRT 1DP, LV activity at 125.1 g/H (% Control rating)” value in experiment [1] (setting [5]) is listed as “A (> 80)”. Further, in experiment [1] (setting [6]), the “PUCCRT 3DC, LV activity at 125.1 g/H (% Control rating)” value is reported as “A (> 80)”. Also, the “SEPTTR 1DP, LV activity at 125.1 g/H (% Control rating)” value in experiment [2] (setting [5]) is reported as “D”. Also, in experiment [2] (setting [6]), the “SEPTTR 3DC, LV activity at 125.1 g/H (% Control rating)” value was “D”.
